What follows are molecules tested on unselective cation channels (UCC) (assay: Thapsigargin-stimulated calcium entry through unselective cation channels in fura-2-charged RBL-hm 1 cells). Conditions: 10^-5 M test substance, Thapsigargin (0.1 μM) stimulation.
Format: cell-based, rat
Protocol: For screening purposes, fura-2-charged adhesive RBL-hm 1 cells are stimulated with […] Thapsigargin in a Ca^2+ -free incubation medium. After 4 minutes, extracellular Ca^2+ is restored to a concentration of 1.5 mM and, using the fura-2-fluorescence, the excessive increase in the cytoplasmic Ca^2+ -concentration caused by a massive transmembranal Ca^2+ -entry through unselective cation channels is recorded.
The fluorometric calcium measurement in the cytoplasm of individual adhering RBL-hm1 cells is carried out analogously to the method described by KUDO and OGURA (1986) for neuronal cells. An AXIOVERT 35 fluorescence microscope made by ZEISS is used in conjunction with an imaging system made by HAMAMATSU, consisting of the ICMS-image processing system, residual light camera with control unit and image intensifier DVS 3000.
The kinetics of the cytoplasmic Ca^2+ -concentration is recorded continuously as a concentration/time curve after the cell activation stimulated by Thapsigargin (0.1 μM). […] The area under these curves (area under the curve=AUC) is integrated and recorded as a measurement of cell activation. The inhibitory potency of the UCC-blockers tested is determined using the following equation: [formula] […]
AUC control=area under the curve which is recorded only after the addition of the stimulant.
The percentage inhibition of UCC after Thapsigargin stimulation (0.1 μM Thapsigargin) in RBL-hm 1 cells is given. […]
In the case of `COc1cc2c(cc1OC)-c1c3cnnc(SCCCCOc4ccccc4F)c3cn1CC2`, the “% H (10^-5 M), percentage inhibition of the calcium entry through unselective cation channels” value is reported as 61.6%.
For `COc1cc2c(cc1OC)-c1c3cnnc(SCc4ccc(Br)cc4)c3cn1CC2`, the “% H (10^-5 M), percentage inhibition of the calcium entry through unselective cation channels” value was 62.9%.
For `COc1cc2c(cc1OC)-c1c3cnnc(SCc4cccc(Cl)c4)c3cn1CC2`, the “% H (10^-5 M), percentage inhibition of the calcium entry through unselective cation channels” value was 81.9%.
`COc1cc2c(cc1OC)-c1c3cnnc(SCc4ccc(F)cc4)c3cn1CC2` was tested, and the “% H (10^-5 M), percentage inhibition of the calcium entry through unselective cation channels” value was 94.6%.
For `COc1cc2c(cc1OC)-c1c3cnnc(SCc4ccccc4)c3cn1CC2`, the “% H (10^-5 M), percentage inhibition of the calcium entry through unselective cation channels” value was 97.5%.
In the case of `COc1cc2c(cc1OC)-c1c3cnnc(OC)c3cn1CC2` [CH3 (X:O), 5,6-Dihydro-2,3,9-trimethoxypyridazino[4',5':3,4]-pyrrolo[2,1-a]isoquinoline], the “% H (10^-5 M), percentage inhibition of the calcium entry through unselective cation channels” value is reported as 62.5%.
With `COc1cc2c(cc1OC)-c1c3cnnc(SC)c3cn1CC2` [CH3 (X:S), reference compound] the “% H (10^-5 M), percentage inhibition of the calcium entry through unselective cation channels” value was 46.4%.

Each molecule was assayed on RBL-2H3-cells (assay: Antigen (DNP-BSA)-induced activation of sensitised RBL-2H3 cells, fluorometric cytoplasmic calcium measurement). Conditions: Rattus norvegicus, read-out: inhibition of the antigen-induced cell activation.
Format: cell-based
Protocol: Individual RBL-2H3-cells (a turnout cell line related to the mast cells) adhering to glass slides are used.
The cultivation and attachment of the RBL-2H3-cells are carried out by the method described by HIDE and BEAVEN (1991). In order to sensitise the adhesive RBL-2H3-cells the cells are incubated for 2 hours at ambient temperature with a 1:2000 diluted commercial gammaglobulin E-solution against a dinitrophenol-bovine serum albumin complex (DNP-BSA-antigen). The cells are then washed. By the addition of 0.1 ml of DNP-BSA-solution (10 μg/ml) there is a massive immunological cell activation which is mediated by a cytoplasmic Ca^2+ -overload. The fluorometric calcium measurement in the cytoplasm of individual adhering RBL-2H3-cells is carried out analogously to the method described by KUDO and OGURA (1986) for neuronal cells, which is also explained hereinbefore in this specification.
The comparison used in these investigations is (10 μM) chromoglycate which brings about an approximately 50% inhibition of the antigen-induced cell activation.
For `O=C(O)c1cc(=O)c2c(OCC(O)COc3cccc4oc(C(=O)O)cc(=O)c34)cccc2o1` [chromoglycate], the inhibition at 10 µM was ~50%.

Source: US5688793A, “Pyridazino[4',5':3,4]pyrrolo-[2,1-a]-isoquinolines and the use thereof for preparing pharmaceutical preparations” (Boehringer Ingelheim GmbH, priority 1993, dated 1997)
